Assay results published in ChEMBL document CHEMBL1201862, “PubChem BioAssay data set” (2004).
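Compound exposure: 48 hours, 5 concentrations, 96-well plates. Abbreviation: GI50, concentration required for 50% inhibition of growth.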 Activity calls are given as the source filed them. Rule as the data show it: active = GI50 up to about 1.1 µM and inactive = higher.

What was measured:
Assay in all cases: DTP human tumour cell line panel, 48 h
DU-145 = tested on: DU-145
SR = tested on: SR
HOP-92 = tested on: HOP-92
MDA-MB-231 = tested on: MDA-MB-231
LOX IMVI = tested on: LOX IMVI
SK-MEL-2 = tested on: SK-MEL-2
HCT-15 = tested on: HCT-15
U-251 = tested on: U-251
BT-549 = tested on: BT-549
T47D = tested on: T47D
RXF 393 = tested on: RXF 393
OVCAR-4 = tested on: OVCAR-4
NCI-H522 = tested on: NCI-H522
HCT-116 = tested on: HCT-116
SK-OV-3 = tested on: SK-OV-3
ACHN = tested on: ACHN
HL-60 = tested on: HL-60
OVCAR-3 = tested on: OVCAR-3
A549 = tested on: A549
NCI-H226 = tested on: NCI-H226

Row | SMILES | GI50 (DU-145) | GI50 (SR) | GI50 (HOP-92) | GI50 (MDA-MB-231) | GI50 (LOX IMVI) | GI50 (SK-MEL-2) | GI50 (HCT-15) | GI50 (U-251) | GI50 (BT-549) | GI50 (T47D) | GI50 (RXF 393) | GI50 (OVCAR-4) | GI50 (NCI-H522) | GI50 (HCT-116) | GI50 (SK-OV-3) | GI50 (ACHN) | GI50 (HL-60) | GI50 (OVCAR-3) | GI50 (A549) | GI50 (NCI-H226)
1 | CCC(C)C(C(=O)N/N=C1/SCC(=O)N1c1ccccc1)C(=O)N/N=C1/SCC(=O)N1c1ccccc1 (stereo not given) | 43.5 µM (inactive) | 40.6 µM (inactive) | 19 µM (inactive) | 28.8 µM (inactive) | 38.4 µM (inactive) | 33.7 µM (inactive) | > 100 µM | 36.8 µM (inactive) | > 100 µM (inactive) | > 100 µM (inactive) | 16.4 µM (inactive) | 16.4 µM (inactive) | 56.9 µM (inactive) | 23 µM (inactive) | 22.2 µM (inactive) | > 100 µM (inactive) | > 100 µM (inactive) | 28.6 µM (inactive) | > 100 µM (inactive) | –
2 | O=C1C(c2cnc3ccccc3n2)=C(O)c2ccccc21 | > 100 µM (inactive) | > 59.7 µM (inactive) | > 100 µM (inactive) | > 100 µM (inactive) | 47.3 µM (inactive) | > 100 µM (inactive) | 1.16 µM | 58.6 µM (inactive) | > 100 µM (inactive) | 83.6 µM (inactive) | 9.71 µM (inactive) | > 53.6 µM (inactive) | > 72.9 µM (inactive) | > 95.7 µM (inactive) | > 46.5 µM (inactive) | > 86.5 µM (inactive) | > 60.4 µM (inactive) | > 100 µM (inactive) | > 81.8 µM (inactive) | > 100 µM (inactive)
3 | O=S(=O)(O)c1ccc(-c2nnc(-c3ccccn3)nc2-c2ccc(S(=O)(=O)O)o2)o1 | > 100 µM (inactive) | > 100 µM (inactive) | > 100 µM (inactive) | > 100 µM (inactive) | > 100 µM (inactive) | > 100 µM (inactive) | > 100 µM | > 100 µM (inactive) | > 100 µM (inactive) | > 100 µM (inactive) | > 100 µM (inactive) | > 100 µM (inactive) | > 100 µM (inactive) | > 100 µM (inactive) | > 100 µM (inactive) | > 100 µM (inactive) | 0.329 µM (active) | > 100 µM (inactive) | > 100 µM (inactive) | > 100 µM (inactive)
4 | COc1ccc2nc3cc([N+](=O)[O-])ccc3c(NNc3ccc([N+](=O)[O-])cc3)c2c1 | 47.8 µM (inactive) | 32.5 µM (inactive) | 26.7 µM (inactive) | 44 µM (inactive) | 61.1 µM (inactive) | 27.6 µM (inactive) | 55.8 µM | 20.8 µM (inactive) | 43.1 µM (inactive) | 37.6 µM (inactive) | 44.1 µM (inactive) | 57.4 µM (inactive) | 29.3 µM (inactive) | 5.69 µM (inactive) | 98.4 µM (inactive) | 46.9 µM (inactive) | 20.3 µM (inactive) | 22.4 µM (inactive) | 7.18 µM (inactive) | 2.36 µM (inactive)
5 | CC(C)CC1c2[nH]c3ccccc3c2C[C@H]2C(=O)NC(CCCCNC(=O)OC(C)(C)C)C(=O)N12 (stereo not given in full) | 38 µM (inactive) | 11.9 µM (inactive) | 31 µM (inactive) | 17 µM (inactive) | 24.6 µM (inactive) | 21.6 µM (inactive) | 31.8 µM | 24.7 µM (inactive) | 25.2 µM (inactive) | 0.449 µM (active) | 6.62 µM (inactive) | 37.7 µM (inactive) | 19.5 µM (inactive) | 30 µM (inactive) | – | 29 µM (inactive) | 21.7 µM (inactive) | 2.36 µM (inactive) | 33.7 µM (inactive) | 55.3 µM (inactive)
6 | CC1=NN(C(=O)c2ccncc2)C(=O)C1 | > 100 µM (inactive) | > 100 µM (inactive) | > 100 µM (inactive) | 32.2 µM (inactive) | > 100 µM (inactive) | > 100 µM (inactive) | > 100 µM | > 100 µM (inactive) | > 100 µM (inactive) | > 100 µM (inactive) | > 100 µM (inactive) | > 100 µM (inactive) | > 100 µM (inactive) | > 100 µM (inactive) | > 100 µM (inactive) | > 100 µM (inactive) | > 100 µM (inactive) | > 100 µM (inactive) | > 100 µM (inactive) | > 100 µM (inactive)
7 | Clc1ccc(Cc2nc3cc4ccccc4cc3[nH]2)cc1Cl | 20.7 µM (inactive) | 7.6 µM (inactive) | 11.7 µM (inactive) | 16.6 µM (inactive) | 14.5 µM (inactive) | 17.1 µM (inactive) | 15.2 µM | 15.5 µM (inactive) | 16 µM (inactive) | 12.2 µM (inactive) | 16.4 µM (inactive) | 13 µM (inactive) | 12.7 µM (inactive) | 20.1 µM (inactive) | – | 30.8 µM (inactive) | 16.3 µM (inactive) | 22.8 µM (inactive) | 16.4 µM (inactive) | 25.2 µM (inactive)
8 | CCCNC(=O)CCC(C)[C@H]1CCC2C3C(C[C@H](OC(C)=O)[C@@]21C)[C@@]1(C)CCC2(C[C@H]1C[C@H]3OC(C)=O)OOC1(CCC(C)CC1)OO2 (stereo not given in full) | 9.31 µM (inactive) | 9.79 µM (inactive) | 0.0447 µM (active) | 29.1 µM (inactive) | – | 19.5 µM (inactive) | 35.3 µM | 14.8 µM (inactive) | 27.1 µM (inactive) | 15.9 µM (inactive) | 50 µM (inactive) | 15.8 µM (inactive) | 13 µM (inactive) | 32.1 µM (inactive) | 60.5 µM (inactive) | 2.14 µM (inactive) | 13.1 µM (inactive) | 4.78 µM (inactive) | 2.17 µM (inactive) | 55.3 µM (inactive)
9 | Cc1cc(S(=O)(=O)N/C(=C(\C#N)C(=O)c2ccc(Cl)cc2)[n+]2ccc(N(C)C)cc2)c([S-])cc1Cl | > 100 µM (inactive) | 41.3 µM (inactive) | < 0.01 µM (active) | > 100 µM (inactive) | – | 4.84 µM (inactive) | 48.6 µM | > 100 µM (inactive) | > 100 µM (inactive) | > 100 µM (inactive) | > 100 µM (inactive) | 40.9 µM (inactive) | 28.9 µM (inactive) | 19.8 µM (inactive) | 30.5 µM (inactive) | > 100 µM (inactive) | > 100 µM (inactive) | 45.1 µM (inactive) | 37.6 µM (inactive) | > 100 µM (inactive)
10 | O=C(Nc1nncs1)NS(=O)(=O)n1c(=S)sc2ccccc21 | > 100 µM (inactive) | 36.4 µM (inactive) | > 100 µM (inactive) | > 100 µM (inactive) | > 100 µM (inactive) | > 100 µM (inactive) | > 100 µM | > 100 µM (inactive) | > 100 µM (inactive) | 88.9 µM (inactive) | > 100 µM (inactive) | > 100 µM (inactive) | 48.1 µM (inactive) | > 100 µM (inactive) | > 100 µM (inactive) | > 100 µM (inactive) | 51.9 µM (inactive) | > 100 µM (inactive) | > 100 µM (inactive) | –
11 | CC(=O)OC1CN2CCC1CC2 (stereo not given) [ACECLIDINE] | > 100 µM (inactive) | > 100 µM (inactive) | > 100 µM (inactive) | > 100 µM (inactive) | > 100 µM (inactive) | – | > 100 µM | > 100 µM (inactive) | > 100 µM (inactive) | > 100 µM (inactive) | > 100 µM (inactive) | > 100 µM (inactive) | > 100 µM (inactive) | > 100 µM (inactive) | > 100 µM (inactive) | > 100 µM (inactive) | > 100 µM (inactive) | > 100 µM (inactive) | > 100 µM (inactive) | > 100 µM (inactive)
12 | Cc1[nH]c2ccccc2c1/C=N/c1ccc(Oc2ccccc2)cc1 | 16.1 µM (inactive) | 19.1 µM (inactive) | 12.7 µM (inactive) | 15.6 µM (inactive) | 15.5 µM (inactive) | 18.4 µM (inactive) | 18.6 µM | 15.3 µM (inactive) | 14.8 µM (inactive) | 18.5 µM (inactive) | 16.8 µM (inactive) | 14.9 µM (inactive) | 14.1 µM (inactive) | 16.6 µM (inactive) | 17.5 µM (inactive) | 16.3 µM (inactive) | 12.1 µM (inactive) | 14.2 µM (inactive) | 17.1 µM (inactive) | –
13 | COc1cccc(/N=N/N2CCCC2)c1 | > 100 µM (inactive) | 40.2 µM (inactive) | > 100 µM (inactive) | > 100 µM (inactive) | 40.2 µM (inactive) | > 100 µM (inactive) | > 100 µM | > 100 µM (inactive) | > 100 µM (inactive) | > 100 µM (inactive) | > 100 µM (inactive) | > 100 µM (inactive) | > 100 µM (inactive) | > 100 µM (inactive) | > 100 µM (inactive) | > 100 µM (inactive) | 34.6 µM (inactive) | > 100 µM (inactive) | – | > 100 µM (inactive)
14 | COc1ccc2c(c1)C1=NCCN(C)c3ccc([N+](=O)[O-])c(c31)N2 | 1.02 µM (active) | 2.88 µM (inactive) | 1.4 µM (inactive) | 0.565 µM (active) | 0.431 µM (active) | – | 0.46 µM | 1.34 µM (inactive) | 2.91 µM (inactive) | 2.66 µM (inactive) | 0.277 µM (active) | 0.685 µM (active) | 0.635 µM (active) | 0.312 µM (active) | 2.23 µM (inactive) | 0.465 µM (active) | 3.16 µM (inactive) | 1.36 µM (inactive) | 0.525 µM (active) | 0.502 µM (active)
